Laboratory results as given in ChEMBL document CHEMBL1151757, “Synthesis, radiosynthesis, and biological evaluation of fluorine-18-labeled 2beta-carbo(fluoroalkoxy)-3beta-(3'-((Z)-2-haloethenyl)phenyl)nortropanes: candidate radioligands for in vivo imaging of the serotonin transporter with positron emission tomography” (J Med Chem, 2008).

Legend:
Caudate [1] = assay: Drug uptake in anesthetized cynomolgus monkey brain caudate after 75 mins postinjection; format: ADME, organism-based, Macaca fascicularis, Caudate nucleus; settings: in vivo, 1.25 h
Caudate [2] = assay: Drug uptake in anesthetized cynomolgus monkey brain caudate after 35 mins postinjection; format: ADME, organism-based, Macaca fascicularis, Caudate nucleus; settings: in vivo
Putamen [3] = assay: Drug uptake in anesthetized cynomolgus monkey brain putamen after 85 mins postinjection; format: ADME, organism-based, Macaca fascicularis; parameters: unit not given here; settings: in vivo
[4] = Ratio of drug uptake in putamen to cerebellum in anesthetized cynomolgus monkey after 3.5 mins postinjection; format: ADME, organism-based, Macaca fascicularis; settings: in vivo
Putamen [5] = assay: Drug uptake in anesthetized cynomolgus monkey brain putamen after 235 mins postinjection; format: ADME, organism-based, Macaca fascicularis; settings: in vivo
[6] = Ratio of drug uptake in pons to cerebellum in anesthetized cynomolgus monkey after 18.5 mins postinjection; format: ADME, organism-based, Macaca fascicularis; settings: in vivo
Putamen [7] = assay: Drug uptake in anesthetized cynomolgus monkey brain putamen after 9.5 mins postinjection; format: ADME, organism-based, Macaca fascicularis; parameters: unit not given here; settings: in vivo
Thalamus [8] = assay: Drug uptake in anesthetized cynomolgus monkey brain thalamus after 18.5 mins postinjection; format: ADME, organism-based, Macaca fascicularis; parameters: unit not given here; settings: in vivo
Caudate [9] = assay: Drug uptake in anesthetized cynomolgus monkey brain caudate after 85 mins postinjection; format: ADME, organism-based, Macaca fascicularis, Caudate nucleus; settings: in vivo
[10] = Ratio of drug uptake in pons to cerebellum in anesthetized cynomolgus monkey after 35 mins postinjection; format: ADME, organism-based, Macaca fascicularis; settings: in vivo
[11] = Ratio of drug uptake in putamen to cerebellum in anesthetized cynomolgus monkey after 35 mins postinjection; format: ADME, organism-based, Macaca fascicularis; settings: in vivo
[12] = Drug uptake in anesthetized cynomolgus monkey brain frontal lobe after 215 mins postinjection; format: ADME, organism-based, Macaca fascicularis; settings: in vivo
Medulla [13] = assay: Drug uptake in anesthetized cynomolgus monkey brain medulla after 165 mins postinjection; format: ADME, organism-based, Macaca fascicularis; settings: in vivo, 2.75 h
[14] = Ratio of drug uptake in medulla to cerebellum in anesthetized cynomolgus monkey after 9.5 mins postinjection; format: ADME, organism-based, Macaca fascicularis; settings: in vivo
Putamen [15] = assay: Drug uptake in anesthetized cynomolgus monkey brain putamen after 215 mins postinjection; format: ADME, organism-based, Macaca fascicularis; settings: in vivo
Thalamus [16] = assay: Drug uptake in anesthetized cynomolgus monkey brain thalamus after 4.5 mins postinjection; format: ADME, organism-based, Macaca fascicularis; parameters: unit not given here; settings: in vivo, 0.075 h
Midbrain [17] = assay: Drug uptake in anesthetized cynomolgus monkey brain midbrain after 35 mins postinjection; format: ADME, organism-based, Macaca fascicularis; parameters: unit not given here; settings: in vivo
[18] = Ratio of drug uptake in occipital lobe to cerebellum in anesthetized cynomolgus monkey after 135 mins postinjection; format: ADME, organism-based, Macaca fascicularis; settings: in vivo, 2.25 h
Thalamus [19] = assay: Drug uptake in anesthetized cynomolgus monkey brain thalamus after 75 mins postinjection; format: ADME, organism-based, Macaca fascicularis; parameters: unit not given here; settings: in vivo, 1.25 h
[20] = Drug uptake in anesthetized cynomolgus monkey brain frontal lobe after 105 mins postinjection; format: ADME, organism-based, Macaca fascicularis; settings: in vivo, 1.75 h
Pons [21] = assay: Drug uptake in anesthetized cynomolgus monkey brain pons after 3.5 mins postinjection; format: ADME, organism-based, Macaca fascicularis; settings: in vivo
Putamen [22] = assay: Drug uptake in anesthetized cynomolgus monkey brain putamen after 35 mins postinjection; format: ADME, organism-based, Macaca fascicularis; parameters: unit not given here; settings: in vivo
Medulla [23] = assay: Drug uptake in anesthetized cynomolgus monkey brain medulla after 3.5 mins postinjection; format: ADME, organism-based, Macaca fascicularis; settings: in vivo
Midbrain [24] = assay: Drug uptake in anesthetized cynomolgus monkey brain midbrain after 115 mins postinjection; format: ADME, organism-based, Macaca fascicularis; parameters: unit not given here; settings: in vivo
Putamen [25] = assay: Drug uptake in anesthetized cynomolgus monkey brain putamen after 1.5 mins postinjection; format: ADME, organism-based, Macaca fascicularis; settings: in vivo, 0.025 h
Pons [26] = assay: Drug uptake in anesthetized cynomolgus monkey brain pons after 65 mins postinjection; format: ADME, organism-based, Macaca fascicularis; settings: in vivo
[27] = Drug uptake in anesthetized cynomolgus monkey brain frontal lobe after 18.5 mins postinjection; format: ADME, organism-based, Macaca fascicularis; settings: in vivo
[28] = Ratio of drug uptake in midbrain to cerebellum in anesthetized cynomolgus monkey after 27.5 mins postinjection; format: ADME, organism-based, Macaca fascicularis; settings: in vivo
[29] = Drug uptake in anesthetized cynomolgus monkey brain cerebellum after 12.5 mins postinjection; format: ADME, organism-based, Macaca fascicularis; settings: in vivo
Thalamus [30] = assay: Drug uptake in anesthetized cynomolgus monkey brain thalamus after 35 mins postinjection; format: ADME, organism-based, Macaca fascicularis; parameters: unit not given here; settings: in vivo
Thalamus [31] = assay: Drug uptake in anesthetized cynomolgus monkey brain thalamus after 235 mins postinjection; format: ADME, organism-based, Macaca fascicularis; parameters: unit not given here; settings: in vivo
Pons [32] = assay: Drug uptake in anesthetized cynomolgus monkey brain pons after 2.5 mins postinjection; format: ADME, organism-based, Macaca fascicularis; settings: in vivo
Midbrain [33] = assay: Drug uptake in anesthetized cynomolgus monkey brain midbrain after 105 mins postinjection; format: ADME, organism-based, Macaca fascicularis; parameters: unit not given here; settings: in vivo, 1.75 h
Putamen [34] = assay: Drug uptake in anesthetized cynomolgus monkey brain putamen after 225 mins postinjection; format: ADME, organism-based, Macaca fascicularis; settings: in vivo, 3.75 h
[35] = Drug uptake in anesthetized cynomolgus monkey brain occipital lobe after 0.5 mins postinjection; format: ADME, organism-based, Macaca fascicularis; settings: in vivo
Thalamus [36] = assay: Drug uptake in anesthetized cynomolgus monkey brain thalamus after 0.5 mins postinjection; format: ADME, organism-based, Macaca fascicularis; settings: in vivo
Putamen [37] = assay: Drug uptake in anesthetized cynomolgus monkey brain putamen after 125 mins postinjection; format: ADME, organism-based, Macaca fascicularis; settings: in vivo
Caudate [38] = assay: Drug uptake in anesthetized cynomolgus monkey brain caudate after 3.5 mins postinjection; format: ADME, organism-based, Macaca fascicularis, Caudate nucleus; settings: in vivo
Thalamus [39] = assay: Drug uptake in anesthetized cynomolgus monkey brain thalamus after 9.5 mins postinjection; format: ADME, organism-based, Macaca fascicularis; parameters: unit not given here; settings: in vivo
[40] = Ratio of drug uptake in medulla to cerebellum in anesthetized cynomolgus monkey after 0.5 mins postinjection; format: ADME, organism-based, Macaca fascicularis; settings: in vivo
Pons [41] = assay: Drug uptake in anesthetized cynomolgus monkey brain pons after 125 mins postinjection; format: ADME, organism-based, Macaca fascicularis; settings: in vivo
Putamen [42] = assay: Drug uptake in anesthetized cynomolgus monkey brain putamen after 95 mins postinjection; format: ADME, organism-based, Macaca fascicularis; parameters: unit not given here; settings: in vivo
Midbrain [43] = assay: Drug uptake in anesthetized cynomolgus monkey brain midbrain after 27.5 mins postinjection; format: ADME, organism-based, Macaca fascicularis; parameters: unit not given here; settings: in vivo
Caudate [44] = assay: Drug uptake in anesthetized cynomolgus monkey brain caudate after 125 mins postinjection; format: ADME, organism-based, Macaca fascicularis, Caudate nucleus; settings: in vivo
[45] = Drug uptake in anesthetized cynomolgus monkey brain cerebellum after 18.5 mins postinjection; format: ADME, organism-based, Macaca fascicularis; settings: in vivo
[46] = Ratio of drug uptake in frontal lobe to cerebellum in anesthetized cynomolgus monkey after 235 mins postinjection; format: ADME, organism-based, Macaca fascicularis; settings: in vivo
[47] = Ratio of drug uptake in frontal lobe to cerebellum in anesthetized cynomolgus monkey after 75 mins postinjection; format: ADME, organism-based, Macaca fascicularis; settings: in vivo, 1.25 h
[48] = Ratio of drug uptake in thalamus to cerebellum in anesthetized cynomolgus monkey after 155 mins postinjection; format: ADME, organism-based, Macaca fascicularis; settings: in vivo
[49] = Drug uptake in anesthetized cynomolgus monkey brain cerebellum after 235 mins postinjection; format: ADME, organism-based, Macaca fascicularis; settings: in vivo
Midbrain [50] = assay: Drug uptake in anesthetized cynomolgus monkey brain midbrain after 75 mins postinjection; format: ADME, organism-based, Macaca fascicularis; parameters: unit not given here; settings: in vivo, 1.25 h
Thalamus [51] = assay: Drug uptake in anesthetized cynomolgus monkey brain thalamus after 135 mins postinjection; format: ADME, organism-based, Macaca fascicularis; parameters: unit not given here; settings: in vivo, 2.25 h
Midbrain [52] = assay: Drug uptake in anesthetized cynomolgus monkey brain midbrain after 45 mins postinjection; format: ADME, organism-based, Macaca fascicularis; parameters: unit not given here; settings: in vivo, 0.75 h
Medulla [53] = assay: Drug uptake in anesthetized cynomolgus monkey brain medulla after 155 mins postinjection; format: ADME, organism-based, Macaca fascicularis; settings: in vivo
[54] = Drug uptake in anesthetized cynomolgus monkey brain cerebellum after 75 mins postinjection; format: ADME, organism-based, Macaca fascicularis; settings: in vivo, 1.25 h
Thalamus [55] = assay: Drug uptake in anesthetized cynomolgus monkey brain thalamus after 215 mins postinjection; format: ADME, organism-based, Macaca fascicularis; parameters: unit not given here; settings: in vivo
[56] = Ratio of drug uptake in putamen to cerebellum in anesthetized cynomolgus monkey after 215 mins postinjection; format: ADME, organism-based, Macaca fascicularis; settings: in vivo
Medulla [57] = assay: Drug uptake in anesthetized cynomolgus monkey brain medulla after 27.5 mins postinjection; format: ADME, organism-based, Macaca fascicularis; settings: in vivo
Medulla [58] = assay: Drug uptake in anesthetized cynomolgus monkey brain medulla after 9.5 mins postinjection; format: ADME, organism-based, Macaca fascicularis; settings: in vivo

O=C(OCCC[18F])C1C2CCC(CC1c1cccc(/C=C\Br)c1)N2 (stereo not drawn)
Drug uptake (Caudate [1]): 5.17 | Drug uptake (Caudate [2]): 5.13 | Drug uptake (Putamen [3]): 5.54 | Ratio [4]: 0.8 | Drug uptake (Putamen [5]): 3.27 | Ratio [6]: 0.7 | Drug uptake (Putamen [7]): 5.12 | Drug uptake (Thalamus [8]): 4.77 | Drug uptake (Caudate [9]): 5.23 | Ratio [10]: 0.9 | Ratio [11]: 1.1 | Drug uptake [12]: 2.03 | Drug uptake (Medulla [13]): 4.42 | Ratio [14]: 1 | Drug uptake (Putamen [15]): 3.51 | Drug uptake (Thalamus [16]): 2.48 | Drug uptake (Midbrain [17]): 6.14 | Ratio [18]: 1.2 | Drug uptake (Thalamus [19]): 5.33 | Drug uptake [20]: 3.19 | Drug uptake (Pons [21]): 1.87 | Drug uptake (Putamen [22]): 6.11 | Drug uptake (Medulla [23]): 2.91 | Drug uptake (Midbrain [24]): 5.52 | Drug uptake (Putamen [25]): 0.3 | Drug uptake (Pons [26]): 4.93 | Drug uptake [27]: 3.7 | Ratio [28]: 1.1 | Drug uptake [29]: 5.72 | Drug uptake (Thalamus [30]): 5.26 | Drug uptake (Thalamus [31]): 3.48 | Drug uptake (Pons [32]): 0.9 | Drug uptake (Midbrain [33]): 5.59 | Drug uptake (Putamen [34]): 3.51 | Drug uptake [35]: 0.01 | Drug uptake (Thalamus [36]): 0.01 | Drug uptake (Putamen [37]): 4.82 | Drug uptake (Caudate [38]): 1.7 | Drug uptake (Thalamus [39]): 4.02 | Ratio [40]: 2.4 | Drug uptake (Pons [41]): 4.3 | Drug uptake (Putamen [42]): 5.28 | Drug uptake (Midbrain [43]): 6.06 | Drug uptake (Caudate [44]): 4.63 | Drug uptake [45]: 6.08 | Ratio [46]: 1.1 | Ratio [47]: 0.9 | Ratio [48]: 1.6 | Drug uptake [49]: 1.87 | Drug uptake (Midbrain [50]): 6.07 | Drug uptake (Thalamus [51]): 4.58 | Drug uptake (Midbrain [52]): 6.06 | Drug uptake (Medulla [53]): 4.48 | Drug uptake [54]: 4.02 | Drug uptake (Thalamus [55]): 3.62 | Ratio [56]: 1.7 | Drug uptake (Medulla [57]): 6.12 | Drug uptake (Medulla [58]): 5.63
